Results on 2 compounds are retold here after patent publication US12036236B2, “Antimicrobial guanidinium macromolecules with bacteria targeting moieties” (International Business Machines Corporation, priority 2018, dated 2024).

Test [1] has as its system clinically isolated MDR K. pneumoniae, E. coli, A. baumannii and MRSA strains. As to the kind of experiment: MIC by broth microdilution against different types and strains of clinically isolated MDR bacteria. Type of test: cell-based. Particulars: MIC comparison. For orientation: Dilution methods test growth across graded concentrations, often in twofold steps.
Protocol: To facilitate comparison, an antimicrobial guanidinium-based macromolecule without a sugar functional group (identified herein as Dp20), as well as strong antibiotics (including imipenem, vancomycin, ceftriaxone, and gentamycin), were also tested against the clinically isolated pathogens. The MDR clinical isolates were obtained from patients' blood and phlegm. All isolates were identified by routine laboratory methods and stored in 20% (v/v) glycerol at 80° C.
In accordance with the broth microdilution method, MDR microbes including one or more strains of K. pneumoniae, E. coli, A. baumannii, and MRSA were harvested in midexponential growth phase after grown overnight in Mueller-Hinton (MH) agar plates at 37° C. The antimicrobial agents were prepared in Mueller Hinton broth (MHB) at various concentrations. The bacteria suspensions were then diluted with phosphate-buffer saline (PBS), with a potential of Hydrogen (PH) of 7.4) to adjust the turbidity approximately to the Standard McFarland 0.6, which corresponds to the concentration of 1×10^8 colony-forming unit (CFU) per mL (CFU/mL, after which the bacteria suspension was further diluted by 100-fold with MHB (1×10^6 CFU/mL). Subsequently, equal volumes (100 μL) of bacterial suspension and agent solution prepared previously were mixed in each well of a 96-well plate and incubated for 18 hours at 37° C. […]
In a further test the test system is A. baumannii 4123. As to the kind of experiment: Effective dose (ED50, ED95) in bacteremia infection mouse model. Type of test: in vivo. The note with it: Acinetobacter baumannii, 4123, ip; immunosuppressed mice, intraperitoneal 1.0 and 6.0 hours after infection, survival 7.0 days, BLISS method; read-out: ED50 (effective dose that cures 50% infected mice).

Protocol for A. baumannii 4123: In this regard, immunosuppressed mice were used for the following in vivo studies. Immunosuppression was induced by intraperitoneal injection of 200 mg/kg cyclophosphamide 4 days prior to infection. The mice were anesthetized by intraperitoneal injection of 1% pentobarbital (40 mg/kg, sigma). The mice were then infected with A. baumannii 4123 to determine the minimum lethal dose for subsequent effective dose and efficacy testing. Briefly, overnight cultures of A. baumannii 4123 were harvested and suspended in phosphate-buffered saline (PBS). Subsequently, the cyclophosphamide-pretreated mice were injected with 0.3 mL of the bacterial suspension at designated doses (e.g., 1.0×10^8, 2.5×10^8, 5×10^8, 1.0×10^9, 2.0×10^9 CFU/mL, six mice per group) via the tail vein. The minimum lethal dose, the lowest concentration sufficient to cause 100% mortality, was determined from the survival rate of mice at 48 hours post-infection by the BLISS method.
Firstly, a bacterial suspension with the minimum lethal dose (0.3 mL) was introduced to the above described cyclophosphamide-pretreated mice via the tail vein. […] The number of surviving mice in each group was recorded for 7.0 days to estimate ED50 and ED95 via the BLISS method.

As for `CN[C@H](CC(C)C)C(=O)N[C@H]1C(=O)N[C@@H](CC(N)=O)C(=O)N[C@H]2C(=O)N[C@H]3C(=O)N[C@H](C(=O)N[C@H](C(=O)O)c4cc(O)cc(O)c4-c4cc3ccc4O)[C@H](O)c3ccc(c(Cl)c3)Oc3cc2cc(c3O[C@@H]2O[C@H](CO)[C@@H](O)[C@H](O)[C@H]2O[C@H]2C[C@](C)(N)[C@H](O)[C@H](C)O2)Oc2ccc(cc2Cl)[C@H]1O` [vancomycin], the “spectrum of efficacy (Gram-negative / Gram-positive strains)” value in test [1] is reported as “only demonstrated efficacy Gram-positive strains”.

What is called ED50 is the midpoint of the dose-response relation. As to `C[C@@H](O)[C@H]1C(=O)N2C(C(=O)O)=C(SCCN=CN)C[C@H]12` [imipenem], the ED50 in the test on A. baumannii 4123 was found to be 6.1 mg/kg.
